The text below walks through data of ChEMBL document CHEMBL1201862, “PubChem BioAssay data set” (2004).

Some test systems named below: CAKI-1; UACC-257; HCT-116; SK-MEL-2; SNB-75; DLD-1; RPMI-8226; TK-10; Malme-3M; OVCAR-8; U-251; SK-MEL-28; UO-31; IGROV-1; UACC-62; SNB-19; MDA-MB-231; Hs-578T; MDA-MB-435; BT-549.
What all share (test): growth of human tumour cells (NCI), 48 h

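Step 1: Grow cells in 96-well plates. Step 2: Expose to compound for 48 hours at 5 concentrations. Step 3: Interpolate endpoints linearly; if unreached, use highest concentration. GI50 is the concentration that inhibits growth by half.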 The source made the active and inactive calls. No stated cut-off is given here; in the data, active = GI50 up to about 1.1 µM and inactive = higher.

Turning to `N=C(N)NCCCC(Nc1c2ccccc2nc2ccccc12)C(=O)O` (configuration not stated), the GI50 with CAKI-1, in the assay on UACC-257, in the assay with HCT-116, in the assay on SK-MEL-2, in the assay with SNB-75 and with DLD-1 was > 100 µM (inactive) each time. The GI50 with RPMI-8226 is 33.1 µM (inactive); with TK-10, 53.7 µM (inactive); in the assay with Malme-3M, > 100 µM (inactive); in the assay on OVCAR-8, > 100 µM (inactive); with U-251, > 100 µM (inactive); in the assay with SK-MEL-28 it was > 100 µM (inactive).
`CC(C)CC(=O)NS(=O)(=O)c1ccccc1`: the GI50 in the assay on CAKI-1, with UO-31, in the assay on UACC-257, in the assay with IGROV-1, with HCT-116 and in the assay with SK-MEL-2 was > 100 µM (inactive) each time. For the same compound, the GI50 in the assay with UACC-62, in the assay on SNB-75, with DLD-1, in the assay with RPMI-8226, in the assay on TK-10 and in the assay on Malme-3M was > 100 µM (inactive) each time. For the same compound, the GI50 in the assay on OVCAR-8, with SNB-19, with U-251 and in the assay on SK-MEL-28 was > 100 µM (inactive) each time.
On to `Cc1ccc(NC(=O)C2C(=O)N(c3ccc(C)c(C)c3)C(=O)/C2=N/O)cc1C` (configuration not stated), for which the GI50 in the assay on CAKI-1, in the assay with UO-31, in the assay on UACC-257, in the assay on IGROV-1, in the assay with HCT-116 and in the assay with SK-MEL-2 was > 100 µM (inactive) throughout. Moreover, the GI50 in the assay with UACC-62, in the assay on SNB-75, in the assay on DLD-1, in the assay with RPMI-8226, in the assay with TK-10 and in the assay on Malme-3M was > 100 µM (inactive) in each case. The GI50 with OVCAR-8, in the assay with SNB-19, in the assay with U-251 and in the assay with SK-MEL-28 was > 100 µM (inactive) in each case.
Turning to `COc1ccc(C2=NN(C(=O)COc3ccc(Cl)cc3)C(O)(c3ccc(Cl)cc3)C2)cc1` (configuration not stated), the GI50 in the assay on CAKI-1, in the assay with UO-31, in the assay on UACC-257, with IGROV-1, in the assay on HCT-116 and with SK-MEL-2 was > 100 µM (inactive) in each case. In addition, the GI50 with UACC-62, in the assay with SNB-75, in the assay with DLD-1, in the assay on RPMI-8226, in the assay on TK-10 and with Malme-3M was > 100 µM (inactive) throughout. Also, the GI50 in the assay with OVCAR-8, in the assay with SNB-19, in the assay with U-251 and in the assay on SK-MEL-28 was > 100 µM (inactive) each time.
In the case of `CCOC(=O)C(C)(c1c(C)[nH]c2ccccc12)c1c(C)[nH]c2ccccc12`, the GI50 with CAKI-1 is 14.3 µM (inactive); in the assay on UO-31, 12.5 µM (inactive); with UACC-257, 14.8 µM (inactive); in the assay on IGROV-1, 20.6 µM (inactive); in the assay with HCT-116 it was 12.5 µM (inactive); in the assay on SK-MEL-2 it was 18.8 µM (inactive). Further, the GI50 in the assay on UACC-62 is 14.2 µM (inactive); in the assay on SNB-75, 17.6 µM (inactive); in the assay with DLD-1, 23.7 µM (inactive); in the assay on RPMI-8226, 16.8 µM (inactive); with TK-10, 18.7 µM (inactive); in the assay on Malme-3M it was 17.3 µM (inactive). The results for the GI50 in the assay with OVCAR-8, in the assay on U-251 and in the assay with SK-MEL-28 were 26.8 µM (inactive), 16.9 µM (inactive) and 15.3 µM (inactive), respectively.
In the case of `COc1ccc2c(c1OC)C1=C(C2=O)c2cc3c(cc2CCN1)OCO3`, the GI50 was 27.3 µM (inactive) in the assay with CAKI-1; 48.3 µM (inactive) in the assay with UO-31; 34.5 µM (inactive) in the assay with UACC-257; 68.1 µM (inactive) with IGROV-1; 32.8 µM (inactive) in the assay with HCT-116; 29 µM (inactive) in the assay with SK-MEL-2. Also, the GI50 was 35.4 µM (inactive) with UACC-62; 2.74 µM (inactive) in the assay with SNB-75; 42.4 µM (inactive) in the assay with DLD-1; 23.1 µM (inactive) in the assay on RPMI-8226; 54.1 µM (inactive) with TK-10; 69.3 µM (inactive) in the assay with Malme-3M. Also, the GI50 was 39.9 µM (inactive) in the assay on OVCAR-8 and 42.7 µM (inactive) with SK-MEL-28.
On to `COc1ccc(-c2cc(=O)c3c(OC)cccc3o2)c(OC)c1OC`, for which the GI50 with CAKI-1, with UACC-257, with IGROV-1, in the assay with HCT-116, with SK-MEL-2 and with UACC-62 was > 100 µM (inactive) in each case. In addition, the GI50 is 19.8 µM (inactive) in the assay on SNB-75; 95.1 µM (inactive) with DLD-1; 80.5 µM (inactive) in the assay on RPMI-8226; 82 µM (inactive) in the assay on TK-10; > 100 µM (inactive) in the assay on Malme-3M; > 100 µM (inactive) with OVCAR-8. The GI50 in the assay with U-251 and with SK-MEL-28 was > 100 µM (inactive) throughout.
Consider `Brc1ccccc2cc(-c3ccccc3)nc1-2`, for which the GI50 was 2.6 µM (inactive) in the assay on MDA-MB-231; 5.05 µM (inactive) in the assay on CAKI-1; 5.37 µM (inactive) in the assay on UO-31; 5.06 µM (inactive) with UACC-257; 9.12 µM (inactive) with IGROV-1; 1.85 µM (inactive) in the assay with HCT-116. For the same compound, the GI50 in the assay on SK-MEL-2 is 4.61 µM (inactive); with UACC-62, 2.53 µM (inactive); in the assay with SNB-75, 11.6 µM (inactive); in the assay with DLD-1 it was 1.94 µM (inactive); in the assay with RPMI-8226 it was 2.44 µM (inactive); with TK-10, 7.57 µM (inactive). The GI50 in the assay with Malme-3M was 3.01 µM (inactive); with OVCAR-8 it was 2.27 µM (inactive); with Hs-578T it was 6.87 µM (inactive); in the assay on SNB-19 it was 13.6 µM (inactive); in the assay with MDA-MB-435, 9.95 µM (inactive); with U-251 it was 7.87 µM (inactive). Also, the GI50 in the assay with SK-MEL-28 was 3.94 µM (inactive); with BT-549 it was 19.3 µM (inactive).
`Cc1ccc(N(C(=O)CC(=O)N2N=C(c3ccccc3)C(/N=N/c3ccc([N+](=O)[O-])cc3)C2=O)C(=O)c2ccc(Cl)cc2)cc1` (configuration not stated): the GI50 is 28.4 µM (inactive) in the assay with CAKI-1; 16.3 µM (inactive) with UO-31; 30.9 µM (inactive) with UACC-257; 16.8 µM (inactive) in the assay with IGROV-1; 8.59 µM (inactive) in the assay on HCT-116; > 38.8 µM (inactive) in the assay on SK-MEL-2. The GI50 in the assay on UACC-62 is 30.3 µM (inactive); in the assay with SNB-75 it was 10.4 µM (inactive); in the assay with DLD-1, 21.2 µM (inactive); in the assay with RPMI-8226 it was 21.1 µM (inactive); with TK-10, 10.9 µM (inactive); in the assay with Malme-3M, > 100 µM (inactive). Moreover, the GI50 with OVCAR-8 was 18.1 µM (inactive); in the assay on SNB-19, 17.3 µM (inactive); in the assay with U-251 it was 6.27 µM (inactive); in the assay with SK-MEL-28, 48.5 µM (inactive).
With `O=C(NNc1ccccc1)/C(=C/c1ccc2c(c1)OCO2)NC(=O)c1ccccc1`, the GI50 in the assay with CAKI-1, with UO-31, with UACC-257, in the assay with IGROV-1, in the assay on HCT-116 and in the assay with SK-MEL-2 was > 100 µM (inactive) throughout. Moreover, the GI50 with UACC-62 was > 100 µM (inactive); with SNB-75, > 100 µM (inactive); in the assay on DLD-1, > 100 µM (inactive); in the assay with RPMI-8226 it was 52.2 µM (inactive); with TK-10 it was > 100 µM (inactive); in the assay on Malme-3M it was > 100 µM (inactive). Further, the GI50 in the assay on OVCAR-8 was > 100 µM (inactive); with SNB-19, > 100 µM (inactive); in the assay on U-251, 98.4 µM (inactive); in the assay with SK-MEL-28, > 100 µM (inactive).
Turning to `COc1ccc(/C=N/Nc2nc(-c3cc4oc(=O)n(C)c4cc3Cl)cs2)cc1OC`, the GI50 was 79.3 µM (inactive) in the assay on CAKI-1; 13.6 µM (inactive) with UO-31; 4.27 µM (inactive) with UACC-257; 14 µM (inactive) in the assay on IGROV-1; 9.04 µM (inactive) in the assay on HCT-116; 53.1 µM (inactive) in the assay on SK-MEL-2. Also, the GI50 was 16.8 µM (inactive) in the assay on UACC-62; 28.7 µM (inactive) in the assay with SNB-75; 10.7 µM (inactive) with DLD-1; 8.26 µM (inactive) with RPMI-8226; 36.7 µM (inactive) with TK-10; 10.5 µM (inactive) with Malme-3M. Moreover, the GI50 was 36.6 µM (inactive) in the assay on OVCAR-8, 49.2 µM (inactive) in the assay with SNB-19, 15.7 µM (inactive) in the assay with U-251 and > 100 µM (inactive) with SK-MEL-28.
On to `O=C(Cc1ccccc1)NN1C(=O)C(Cl)C1c1cccc([N+](=O)[O-])c1` (configuration not stated), for which the GI50 with CAKI-1 was 38.5 µM (inactive); in the assay on UO-31, 31.7 µM (inactive); in the assay with UACC-257, 36.6 µM (inactive); in the assay on IGROV-1, 4.18 µM (inactive); in the assay on HCT-116, 23.4 µM (inactive); in the assay with SK-MEL-2, 31.7 µM (inactive). In addition, the GI50 in the assay with UACC-62 was 31.3 µM (inactive); with SNB-75, 0.729 µM (active); in the assay on DLD-1, 37.9 µM (inactive); with RPMI-8226, 16.6 µM (inactive); with TK-10, > 100 µM (inactive); with Malme-3M, > 78.5 µM (inactive). Further, the GI50 in the assay with OVCAR-8 is 27.9 µM (inactive); in the assay with SNB-19, > 92.9 µM (inactive); with U-251, 63.2 µM (inactive); with SK-MEL-28, > 92.9 µM (inactive).
